In PMC9237094, “Efficient transdermal delivery of functional protein cargoes by a hydrophobic peptide MTD 1067” (Scientific Reports, 2022):
Where a SMILES comes first, the peptide text is derived from it. [ ]: non-standard residue; d: D form.

Columns and labels:
[1] = test system: fibroblast cell line NIH 3T3; assay: Cell proliferation activity, NIH 3T3 cells (MTT); format: cell-based, mouse; details: 48 h, absorbance 570 nm, triplicates of at least two independent experiments
Experimental: The cell proliferation activity of PDGF-BB and MTD-PDGF-BB was measured using NIH 3T3 cells, which were cultured in DMEM medium supplemented with 10% Bovine Calf Serum (BCS; Hyclone, USA) in a 96-well plate at 5 × 10^3 cells/well for 24 h. 100 μL of the protein sample, serially diluted with serum-free DMEM medium, was added to each well and cultured at 37 °C for 48 h. After removing the cell culture medium, 100 μL of a mixed solution of 5 mg/mL MTT and serum-free DMEM at a ratio of 1:10 was added to each well. After 4 h of incubation in a CO2 incubator for 4 h, the reaction solution was removed, and 100 μL of DMSO was added to each well. Formazans were sufficiently dissolved in DMSO using a plate shaker to develop a purple color, which was measured at 570 nm using a microplate reader (Spectra Max, Molecular Devices, USA).

[2] = test system: artificial skin (EpiDermFT); assay: Skin penetration in artificial skin model, confocal fluorescence intensity; format: in vitro ADME, human; details: FITC-labeled (GHRP-6, des(1-3)IGF-I forms) or rhodamine-labeled (PDGF-BB forms), 0.2 mg/mL, 40 μL, 24 h, 32 °C, 5% CO2, at least three images
Experimental: To evaluate skin permeability using confocal microscopy, des(1-3)IGF-I and MTD-des(1-3)IGF-I were labeled with fluorescein isothiocyanate (FITC), and PDGF-BB and MTD-PDGF-BB were labeled with rhodamine. The labeling reaction was carried out with the molar ratio of protein: FITC (or rhodamine) as 1:10 at 4 °C for 2 h. Excess FITC and rhodamine were removed using a PD-10 desalting column (GE Healthcare, USA). After adjusting the concentrations of FITC-labeled GHRP-6, MTD-GHRP-6, des(1-3)IGF-I, MTD-des(1-3)IGF-I, PDGF-BB, and MTD-PDGF-BB to 0.2 mg/mL, respectively, each labeled solution was applied to the artificial skin (EpiDermFT™, MatTek, USA). […] The fluorescence intensity per equivalent area of the dermal layer was calculated for each confocal image. Quantification analysis using fluorescence intensity was calculated based on the fluorescence intensity of confocal microscopy images. Three confocal microscopy images were obtained per each artificial skin, and the fluorescence intensity values were extracted from five areas of the same size per dermis layer in the microscopy images. The relative intensity was calculated by comparing the signals between the samples with and without MTD conjugation.

Molecule	ED50, cell proliferation [1]	Fluorescence intensity in the dermal layer (permeability) relative to the original cargo [2]
PDGF-BB: recombinant human platelet-derived growth factor BB, dimeric protein	0.042 µg/mL	–
CSCC[C@H](NC(=O)[C@H](CCCNC(=N)N)NC(=O)[C@H](C)NC(=O)[C@H](C)NC(=O)[C@H](C)NC(=O)[C@@H]1CCCN1C(=O)[C@H](C)NC(=O)[C@@H](NC(=O)[C@H](C)NC(=O)[C@H](C)NC(=O)CNC(=O)CNC(=O)[C@H](CCCCN)NC(=O)[C@@H](Cc1ccccc1)NC(=O)[C@H](Cc1c[nH]c2ccccc12)NC(=O)[C@H](C)NC(=O)[C@@H](Cc1c[nH]c2ccccc12)NC(=O)[C@@H](N)Cc1c[nH]cn1)C(C)C)C(=O)O [MTD-GHRP-6] (H-H[dW]AW[dF]KGGAAVAPAAARM-OH)	–	approximately five
